Assays:
Assay in all cases: Eurofins kinase selectivity profile against 380 other human recombinant kinases (Table S2)
Format in all cases: biochemical
[1] = target: T1, 380 human recombinant protein kinases (Homo sapiens, UniProt Q8IYT8); conditions: ULK2(h), read-out: Inhibition rate (%)
T1 construct: purchased Eurofins (Celle Lévescault)
T1 sequence (Q8IYT8 1-1036): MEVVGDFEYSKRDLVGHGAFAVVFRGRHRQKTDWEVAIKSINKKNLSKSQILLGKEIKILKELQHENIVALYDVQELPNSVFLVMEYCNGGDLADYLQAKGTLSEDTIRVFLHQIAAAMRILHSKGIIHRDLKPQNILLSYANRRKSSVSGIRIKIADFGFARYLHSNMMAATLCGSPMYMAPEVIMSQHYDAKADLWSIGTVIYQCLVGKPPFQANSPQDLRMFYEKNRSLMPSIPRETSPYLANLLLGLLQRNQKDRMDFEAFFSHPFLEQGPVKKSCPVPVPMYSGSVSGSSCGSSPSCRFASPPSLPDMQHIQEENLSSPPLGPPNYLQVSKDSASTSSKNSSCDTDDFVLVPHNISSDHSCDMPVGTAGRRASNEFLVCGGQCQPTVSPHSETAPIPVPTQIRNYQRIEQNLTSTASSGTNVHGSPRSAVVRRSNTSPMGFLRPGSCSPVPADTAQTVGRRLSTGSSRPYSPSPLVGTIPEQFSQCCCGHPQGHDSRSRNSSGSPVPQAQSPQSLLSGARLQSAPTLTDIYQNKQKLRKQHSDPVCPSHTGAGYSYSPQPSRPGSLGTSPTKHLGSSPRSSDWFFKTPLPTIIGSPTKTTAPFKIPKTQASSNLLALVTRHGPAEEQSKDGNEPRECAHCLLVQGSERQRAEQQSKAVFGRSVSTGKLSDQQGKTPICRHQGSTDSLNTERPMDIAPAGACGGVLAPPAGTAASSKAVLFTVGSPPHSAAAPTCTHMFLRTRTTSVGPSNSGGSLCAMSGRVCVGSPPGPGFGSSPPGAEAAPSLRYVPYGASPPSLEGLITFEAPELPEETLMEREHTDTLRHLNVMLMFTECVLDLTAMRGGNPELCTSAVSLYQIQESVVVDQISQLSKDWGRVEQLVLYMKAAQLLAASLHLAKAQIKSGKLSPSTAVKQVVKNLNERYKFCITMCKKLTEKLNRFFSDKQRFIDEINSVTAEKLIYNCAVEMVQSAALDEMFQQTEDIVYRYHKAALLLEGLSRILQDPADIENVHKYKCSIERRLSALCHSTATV
Procedure, shortened: (§1)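 The inhibitor was sent to a contract lab and screened at various concentrations against 380 human recombinant protein kinases. This served as a counter-screen for MK2 specificity.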

[2] = target: T2, 380 human recombinant protein kinases (Homo sapiens, UniProt Q96SB4); conditions: SRPK1(h), read-out: Inhibition rate (%)
T2 construct: purchased Eurofins (Celle Lévescault)
T2 sequence (Q96SB4 whole entry): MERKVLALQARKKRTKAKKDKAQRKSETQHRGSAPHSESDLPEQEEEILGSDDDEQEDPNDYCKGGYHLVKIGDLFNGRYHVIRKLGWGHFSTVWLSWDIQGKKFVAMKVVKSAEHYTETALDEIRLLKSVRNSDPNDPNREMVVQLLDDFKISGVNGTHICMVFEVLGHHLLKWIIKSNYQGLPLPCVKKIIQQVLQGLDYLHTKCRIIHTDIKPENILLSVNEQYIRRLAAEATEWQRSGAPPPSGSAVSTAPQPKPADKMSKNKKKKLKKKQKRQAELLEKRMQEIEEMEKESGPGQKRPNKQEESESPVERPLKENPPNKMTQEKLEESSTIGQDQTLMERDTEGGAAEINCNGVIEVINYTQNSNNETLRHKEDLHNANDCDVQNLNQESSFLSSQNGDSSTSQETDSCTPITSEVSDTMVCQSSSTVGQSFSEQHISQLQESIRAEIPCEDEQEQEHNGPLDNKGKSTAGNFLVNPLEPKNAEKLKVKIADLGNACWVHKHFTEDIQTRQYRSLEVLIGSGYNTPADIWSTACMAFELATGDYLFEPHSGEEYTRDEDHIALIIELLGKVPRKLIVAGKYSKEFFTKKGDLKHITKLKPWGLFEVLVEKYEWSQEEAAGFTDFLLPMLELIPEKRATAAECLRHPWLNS
Procedure, shortened: as §1

[3] = target: T3, 380 human recombinant protein kinases (Homo sapiens, UniProt Q13131); conditions: AMPKα1(h), read-out: Inhibition rate
T3 construct: purchased Eurofins (Celle Lévescault)
T3 sequence (Q13131 whole entry): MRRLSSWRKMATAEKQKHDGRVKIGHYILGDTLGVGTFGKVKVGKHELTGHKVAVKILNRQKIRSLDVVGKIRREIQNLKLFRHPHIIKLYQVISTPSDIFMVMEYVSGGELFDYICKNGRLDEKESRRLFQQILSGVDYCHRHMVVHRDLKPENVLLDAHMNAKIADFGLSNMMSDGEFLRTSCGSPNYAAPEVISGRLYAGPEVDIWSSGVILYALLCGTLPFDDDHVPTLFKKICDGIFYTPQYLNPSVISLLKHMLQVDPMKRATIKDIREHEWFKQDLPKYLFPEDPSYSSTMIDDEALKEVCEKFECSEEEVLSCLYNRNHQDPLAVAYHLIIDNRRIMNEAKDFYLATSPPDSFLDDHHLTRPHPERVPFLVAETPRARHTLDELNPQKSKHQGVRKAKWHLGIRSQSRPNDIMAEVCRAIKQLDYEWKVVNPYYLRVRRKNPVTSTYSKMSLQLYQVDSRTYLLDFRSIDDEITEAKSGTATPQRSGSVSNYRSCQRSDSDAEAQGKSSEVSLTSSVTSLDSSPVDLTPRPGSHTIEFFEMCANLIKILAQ
Procedure, shortened: as §1

[4] = target: T4, 380 human recombinant protein kinases (Homo sapiens, UniProt Q12866); conditions: Mer(h), read-out: Inhibition rate
T4 construct: purchased Eurofins (Celle Lévescault)
T4 sequence (Q12866 21-999): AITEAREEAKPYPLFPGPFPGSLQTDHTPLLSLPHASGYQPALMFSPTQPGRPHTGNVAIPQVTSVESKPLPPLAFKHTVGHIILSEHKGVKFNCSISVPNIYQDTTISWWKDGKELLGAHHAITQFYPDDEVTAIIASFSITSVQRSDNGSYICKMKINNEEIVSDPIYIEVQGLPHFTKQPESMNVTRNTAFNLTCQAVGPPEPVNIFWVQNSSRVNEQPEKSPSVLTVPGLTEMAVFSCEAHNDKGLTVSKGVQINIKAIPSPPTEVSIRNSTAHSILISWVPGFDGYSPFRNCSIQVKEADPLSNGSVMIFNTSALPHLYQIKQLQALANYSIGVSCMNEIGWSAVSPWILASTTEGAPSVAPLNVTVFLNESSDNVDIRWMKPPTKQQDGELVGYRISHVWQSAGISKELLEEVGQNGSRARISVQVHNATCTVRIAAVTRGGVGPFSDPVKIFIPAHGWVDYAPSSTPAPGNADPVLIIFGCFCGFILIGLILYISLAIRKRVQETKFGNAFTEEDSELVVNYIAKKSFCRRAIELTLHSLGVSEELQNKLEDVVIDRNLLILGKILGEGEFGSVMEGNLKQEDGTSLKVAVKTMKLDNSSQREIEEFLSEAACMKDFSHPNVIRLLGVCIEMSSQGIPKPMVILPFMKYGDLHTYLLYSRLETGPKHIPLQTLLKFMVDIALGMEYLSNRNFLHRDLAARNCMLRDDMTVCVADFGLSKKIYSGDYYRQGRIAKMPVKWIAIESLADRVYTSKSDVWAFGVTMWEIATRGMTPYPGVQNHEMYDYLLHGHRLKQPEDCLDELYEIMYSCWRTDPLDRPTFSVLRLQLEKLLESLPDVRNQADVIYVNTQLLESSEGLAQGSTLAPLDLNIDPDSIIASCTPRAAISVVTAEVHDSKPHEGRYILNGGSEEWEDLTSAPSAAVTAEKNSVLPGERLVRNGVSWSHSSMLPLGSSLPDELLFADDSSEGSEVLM
Procedure, shortened: as §1

[5] = target: T5, 380 human recombinant protein kinases (Homo sapiens, UniProt P48736); conditions: PI3 Kinase (p120γ)(h), read-out: Inhibition rate (%)
T5 construct: purchased Eurofins (Celle Lévescault)
T5 sequence (P48736 whole entry): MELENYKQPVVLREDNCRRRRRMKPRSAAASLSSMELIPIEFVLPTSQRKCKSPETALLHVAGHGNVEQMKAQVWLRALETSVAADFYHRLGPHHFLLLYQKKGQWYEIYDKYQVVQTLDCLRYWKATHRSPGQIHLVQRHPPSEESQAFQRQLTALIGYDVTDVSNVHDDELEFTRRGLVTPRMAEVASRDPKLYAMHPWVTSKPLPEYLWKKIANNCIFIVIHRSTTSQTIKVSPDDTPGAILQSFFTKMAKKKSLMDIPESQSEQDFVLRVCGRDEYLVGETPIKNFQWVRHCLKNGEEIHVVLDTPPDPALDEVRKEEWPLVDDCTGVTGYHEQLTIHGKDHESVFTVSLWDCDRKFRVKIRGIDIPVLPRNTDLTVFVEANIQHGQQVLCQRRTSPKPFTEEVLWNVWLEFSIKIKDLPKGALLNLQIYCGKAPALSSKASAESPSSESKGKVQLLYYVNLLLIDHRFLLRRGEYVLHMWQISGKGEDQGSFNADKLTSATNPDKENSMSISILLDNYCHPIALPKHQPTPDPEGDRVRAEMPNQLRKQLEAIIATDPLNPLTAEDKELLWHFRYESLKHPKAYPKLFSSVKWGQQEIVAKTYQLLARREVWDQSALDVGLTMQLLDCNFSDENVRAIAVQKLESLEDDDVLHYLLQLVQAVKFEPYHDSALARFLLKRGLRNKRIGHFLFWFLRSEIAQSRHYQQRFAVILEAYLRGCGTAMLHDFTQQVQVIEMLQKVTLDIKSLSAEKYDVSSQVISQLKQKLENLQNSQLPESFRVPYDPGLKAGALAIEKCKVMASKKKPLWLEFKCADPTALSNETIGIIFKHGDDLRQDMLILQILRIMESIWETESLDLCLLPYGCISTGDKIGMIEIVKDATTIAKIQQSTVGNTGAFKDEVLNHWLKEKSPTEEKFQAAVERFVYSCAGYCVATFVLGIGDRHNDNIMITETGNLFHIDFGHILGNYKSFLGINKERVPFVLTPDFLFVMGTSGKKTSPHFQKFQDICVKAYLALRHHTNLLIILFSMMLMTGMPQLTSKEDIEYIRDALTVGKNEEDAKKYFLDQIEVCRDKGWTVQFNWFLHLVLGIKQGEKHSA
Procedure, shortened: as §1

[6] = target: T6, 380 human recombinant protein kinases (Homo sapiens, UniProt Q9UIK4); conditions: DAPK2(h), read-out: Inhibition rate
T6 construct: purchased Eurofins (Celle Lévescault)
T6 sequence (Q9UIK4 whole entry): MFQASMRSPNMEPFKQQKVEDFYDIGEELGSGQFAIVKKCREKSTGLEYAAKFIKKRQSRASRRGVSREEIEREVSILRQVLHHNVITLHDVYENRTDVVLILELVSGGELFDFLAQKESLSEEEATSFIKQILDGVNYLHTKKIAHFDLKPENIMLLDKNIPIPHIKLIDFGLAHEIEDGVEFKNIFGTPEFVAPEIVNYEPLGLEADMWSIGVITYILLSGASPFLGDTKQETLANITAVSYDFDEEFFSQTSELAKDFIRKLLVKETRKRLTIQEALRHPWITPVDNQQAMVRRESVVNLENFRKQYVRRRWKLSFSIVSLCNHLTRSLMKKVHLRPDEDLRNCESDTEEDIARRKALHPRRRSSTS
Procedure, shortened: as §1

[7] = target: T7, 380 human recombinant protein kinases (Homo sapiens, UniProt Q9C098); conditions: DCAMKL3(h), read-out: Inhibition rate
T7 construct: purchased Eurofins (Celle Lévescault)
T7 sequence (Q9C098 whole entry): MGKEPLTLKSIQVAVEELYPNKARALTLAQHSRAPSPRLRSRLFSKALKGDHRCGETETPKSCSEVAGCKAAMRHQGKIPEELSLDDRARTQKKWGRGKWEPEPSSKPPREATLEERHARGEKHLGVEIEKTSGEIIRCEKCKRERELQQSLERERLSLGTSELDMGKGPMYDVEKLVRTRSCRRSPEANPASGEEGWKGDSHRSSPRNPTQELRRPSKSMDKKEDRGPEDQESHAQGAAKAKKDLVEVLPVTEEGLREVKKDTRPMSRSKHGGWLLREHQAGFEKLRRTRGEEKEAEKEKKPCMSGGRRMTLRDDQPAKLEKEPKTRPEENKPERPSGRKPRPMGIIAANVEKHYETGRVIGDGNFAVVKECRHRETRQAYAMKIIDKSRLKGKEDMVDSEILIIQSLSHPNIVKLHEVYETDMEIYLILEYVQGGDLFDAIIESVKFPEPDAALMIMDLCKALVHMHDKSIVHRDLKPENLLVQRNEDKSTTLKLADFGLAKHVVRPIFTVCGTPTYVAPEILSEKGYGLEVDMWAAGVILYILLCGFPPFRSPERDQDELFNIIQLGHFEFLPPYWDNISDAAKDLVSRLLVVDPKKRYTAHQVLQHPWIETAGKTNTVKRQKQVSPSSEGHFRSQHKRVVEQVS
Procedure, shortened: as §1

Question: What does the source list for C=CC(=O)Nc1cc(-c2cc(-c3cc4c([nH]3)CCNC4=O)ccn2)ccc1OC(F)(F)F [compound 11]?
Answer: inhibition at 0.01 µM ([1]; 10 nM): 6%; inhibition at 0.1 µM ([1]; 100 nM): 6%; inhibition at 1 µM ([1]; 1000 nM): 5%; inhibition at 0.01 µM ([2]; 10 nM): 6%; inhibition at 0.1 µM ([2]; 100 nM): 13%; inhibition at 1 µM ([2]; 1000 nM): 22%; inhibition at 0.01 µM ([3]; 10 nM): 6%; inhibition at 0.1 µM ([3]; 100 nM): 20%; inhibition at 1 µM ([3]; 1000 nM): 65%; inhibition at 0.01 µM ([4]; 10 nM): -21%; inhibition at 0.1 µM ([4]; 100 nM): 4%; inhibition at 1 µM ([4]; 1000 nM): 28%; inhibition at 0.01 µM ([5]; 10 nM): 1%; inhibition at 0.1 µM ([5]; 100 nM): -1%; inhibition at 1 µM ([5]; 1000 nM): 3%; inhibition at 0.01 µM ([6]; 10 nM): 8%; inhibition at 0.1 µM ([6]; 100 nM): 3%; inhibition at 1 µM ([6]; 1000 nM): 13%; inhibition at 0.01 µM ([7]; 10 nM): -1%; inhibition at 0.1 µM ([7]; 100 nM): 6%; inhibition at 1 µM ([7]; 1000 nM): 26%
